Common to all, as to type: in vivo
Test [1] deals with female NMRI mice. The test can be described thus: Sedative effect (orientation hypermotility). To be noted: for Sedative effect R.A. (relative activity): relative to Clozapin (1.00); for Sedative effect (in words): discussion of Table 1. The method, then:
The substances are administered orally to groups of 4×3 or 8×3 female NMRI mice. The orientation hypermotility induced by a new environment is determined photoelectrically, 30 minutes after the administration of the substances, for a period of 30 minutes.

Test [2] concerns female NMRI mice. The test can be described thus: Analgesic effect (D'Amour and Smith tail-flick method). The following applies: for Analgesic effect ED 100%: intraperitoneal, mice, dose lengthening tail-flick reaction time by 100%, 30 minutes after administration; for Analgesic effect R.A. (relative activity): relative to Clozapin (1.00); for Analgesic effect (in words): discussion of Table 1.
Procedure: The analgesic effect is determined by means of the D'Amour and Smith (1941) tail-flick method. In this, the substances are administered intraperitoneally to groups of 10 female NMRI mice. The pain reaction is triggered 30 minutes after administration. The reaction time, until the tail is flicked out of the way after exposure to a focused light beam, is measured.

Test [3] has as its system female Sprague-Dawley rats. The test can be described thus: Apomorphine-antagonistic effect (jaw movements, mandibulogram). The following applies: for Apomorphine antagonism R.A. (relative activity): relative to Clozapin (1.00). The method, then:
4. Apomorphine-antagonistic effect
Jaw motions are triggered in groups of 4-6 female Sprague-Dawley rats by subcutaneous administration of 1.5 mg of apomorphine/kg, and are recorded by means of implanted electrodes (Kubacki mandibulogram, 1978) .

In test [4] the test system is female NMRI mice. Description: Anti-cholinergic effect (protection against death from Physostigmin). The method, then: 3. Anti-cholinergic effect
A lethal dose (0.825 mg/kg) of Physostigmin is administered subcutaneously to groups of 10 female NMRI mice. The test substances are administered orally 30 minutes before administering the Physostigmin.

Entries after “also recorded” stand apart in the source; their conditions may differ. Where a name gives a salt, the structure may show the parent alone.

`N#CC=C1c2ccccc2N=C(N2CCCNCC2)c2ccccc21` (mixture of isomers) [32 cis-trans M, cis,trans-11-Cyanomethylene-6-homopiperazin-1-yl-morphanthridine.HCl.H2 O]: the “Sedative effect R.A. (relative activity)” value in test [1] was above 0.22. Also, in test [2], the Analgesic effect ED 100% worked out at 46.4 mg/kg and the “Analgesic effect R.A. (relative activity)” value worked out at 0.04. For the same molecule, the “Apomorphine antagonism R.A. (relative activity)” value in test [3] is below 0.08.

Turning to `Cc1ccc2c(c1)N=C(N1CCN(C)CC1)c1ccccc1/C2=C\C#N` [13a cis-isomer, cis-3-methyl-11-cyanomethylene-6-(4-methyl-piperazin-1-yl)-morphanthridine], in test [1], the “Sedative effect (in words)” value was “responsible for the strong sedative and strong analgesic effects”. Further, in test [2], the “Analgesic effect (in words)” value was “An analgesic effect is found; also recorded: responsible for the strong sedative and strong analgesic effects”; the Analgesic effect ED 100% turned out to be 0.74 mg/kg.

In turn, `CCN1CCN(C2=Nc3ccccc3/C(=C\C#N)c3ccccc32)CC1` [31 trans-isomer, trans-11-cyanomethylene-6-(4-ethyl-piperazin-1-yl)-morphanthridine] returned an Analgesic effect ED 100% in test [2] above 46.4 mg/kg.

For the molecule `CN1CCN(C2=Nc3ccccc3C(=CC#N)c3ccccc32)CC1` [1 cis-trans M, cis- and trans-11-Cyanomethylene-6-(4-methyl-piperazin-1-yl)-morphanthridine], in test [1] (listed as Example 1 (cis-trans mixture)), the “Sedative effect (in words)” value is given as “relatively strong sedative effects; also recorded: more strongly sedative”. In test [2], the “Analgesic effect (in words)” value is “not analgesically active” and the Analgesic effect ED 100% was determined as 46.4 mg/kg. Moreover, the “Apomorphine-antagonistic effect (in words)” value in test [3] (discussion of Table 1) is “somewhat weaker than that of Clozapin”. In addition, in test [4] (Mus musculus, read-out: Anti-cholinergic effect ED 50%, oral, 30 minutes before Physostigmin 0.825 mg/kg subcutaneous, mice, dose protecting 50% of the animals against death), the ED50 was 6.26 mg/kg.

For `C[N+]1([O-])CCN(C2=Nc3ccccc3/C(=C\C#N)c3ccccc32)CC1` [67 trans-isomer, t rans-11-cyanomethylene-6-(4-methyl-4-oxy-piperazin-1-yl)-morphanthridine], the “Sedative effect R.A. (relative activity)” value in test [1] was found to be 0.04. Also, in test [2], the Analgesic effect ED 100% is above 100 mg/kg and the “Analgesic effect R.A. (relative activity)” value is below 0.02. Moreover, in test [3], the “Apomorphine antagonism R.A. (relative activity)” value is on record as 0.32.

With `N#CC=C1c2ccccc2N=C(NCCN2CCCCC2)c2ccccc21` (mixture of isomers) [38 cis-trans M, cis,trans-11-Cyanomethylene-6-(2-piperidin-1-yl-ethylamino)-morphanthridine.1/2H2 O], in test [1], the “Sedative effect R.A. (relative activity)” value is reported as 2.94. In test [2], the Analgesic effect ED 100% was above 10 mg/kg. Moreover, the “Apomorphine antagonism R.A. (relative activity)” value in test [3] was 0.17.

As to `C[N+]1([O-])CCN(C2=Nc3ccccc3C(=CC#N)c3ccccc32)CC1` (mixture of isomers) [67 cis-trans M, cis,trans-11-Cyanomethylene-6-(4-methyl-4-oxypiperazin-1-yl)-morphanthridine.2H2 O], in test [1], the “Sedative effect R.A. (relative activity)” value turned out to be 0.33. Also, in test [2], the Analgesic effect ED 100% was above 46.4 mg/kg and the “Analgesic effect R.A. (relative activity)” value was below 0.04. The “Apomorphine antagonism R.A. (relative activity)” value in test [3] came to 0.09.

`CN1CCN(C2=Nc3ccccc3Cc3ccccc32)CC1` [Perlapin, reference compound]: the “Sedative effect R.A. (relative activity)” value in test [1] is 2.31. The “Analgesic effect R.A. (relative activity)” value in test [2] is given as below 0.10. In test [3], the “Apomorphine antagonism R.A. (relative activity)” value is listed as 0.37.

In the case of `CN1CCN(C2=Nc3cc(Cl)ccc3Nc3ccccc32)CC1` [Clozapin, reference compound], in test [1], the “Sedative effect R.A. (relative activity)” value is reported as 1.00. In test [2], the Analgesic effect ED 100% worked out at 2.08 mg/kg and the “Analgesic effect R.A. (relative activity)” value came to 1.00. Moreover, the “Apomorphine antagonism R.A. (relative activity)” value in test [3] is reported as 1.00.

In test [2], `CN1CCN(C2=Nc3ccccc3/C(=C\C#N)c3ccccc32)CC1` [1 trans-isomer, trans-11-cyanomethylene-6-(4-methyl-piperazin-1-yl)-morphanthridine] yielded an Analgesic effect ED 100% above 21.5 mg/kg.

Regarding `Cc1ccc2c(c1)C(=CC#N)c1ccccc1C(N1CCN(C)CC1)=N2` (mixture of isomers) [13b cis-trans M, cis,trans-2-Methyl-11-cyanomethylene-6-(4-methyl-piperazin-1-yl)-morphanthridine], the Analgesic effect ED 100% in test [2] was determined as 10 mg/kg.

Regarding `C[N+]1([O-])CCN(C2=Nc3ccccc3/C(=C/C#N)c3ccccc32)CC1` [67 cis-isomer, cis-11-cyanomethylene-6-(4-methyl-4-oxy-piperazin-1-yl)-morphanthridine], the “Sedative effect R.A. (relative activity)” value in test [1] was 0.26. In test [2], the Analgesic effect ED 100% was above 46.4 mg/kg and the “Analgesic effect R.A. (relative activity)” value was below 0.04. In addition, in test [3], the “Apomorphine antagonism R.A. (relative activity)” value is given as below 0.08.

Molecule `CCN1CCN(C2=Nc3ccccc3C(=CC#N)c3ccccc32)CC1` (mixture of isomers) [31 cis-trans M, cis,trans-11-Cyanomethylene-6-(4-ethyl-piperazin-1-yl)-morphanthridine] registered an Analgesic effect ED 100% in test [2] above 10 mg/kg.

`CN1CCN(C2=Nc3ccccc3/C(=C/C#N)c3ccccc32)CC1` [1 cis-isomer, cis-11-cyanomethylene-6-(4-methylpiperazin-1-yl)-morphanthridine] yielded an Analgesic effect ED 100% in test [2] of 31.6 mg/kg. The “Anti-cholinergic effect (in words)” value in test [4] (discussion of Table 1, Physostigmin antagonism) is listed as “approximately comparable anti-cholinergic effect”.

Consider `Cc1ccc2c(c1)N=C(N1CCN(C)CC1)c1ccccc1C2=CC#N` (mixture of isomers) [13a cis-trans M, cis,trans-3-Methyl-11-cyanomethylene-6-(4-methylpiperazin-1-yl)-morphanthridine], for which, in test [2], the Analgesic effect ED 100% turned out to be 5.17 mg/kg.

Turning to `Cc1ccc2c(c1)N=C(N1CCN(C)CC1)c1ccccc1/C2=C/C#N` [13a trans-isomer, trans-3-methyl-11-cyanomethylene-6-(4-methylpiperazin-1-yl)-morphanthridine], the Analgesic effect ED 100% in test [2] turned out to be 68.1 mg/kg.

Source of the values: patent US4388237A, “6(1-Piperazinyl), piperidino and (1(homopiperazinyl)11-cyanomethylene morphanthridines” (BASF Aktiengesellschaft, priority 1979, dated 1983).
